This assay deals with L1210 leukemia ip in BDF1 mice, survival T/C. Nature of the assay: NCI In Vivo Anticancer Drug Screen. Data for tumor model L1210 Leukemia (intraperitoneal) in B6D2F1 (BDF1) mice. The settings on record: endpoint: mean survival time, higher = longer survival. The method in brief: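 Transplanted-tumor mice were given test agent; controls received vehicle only. Survival readings from the two groups were divided (treated over control).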

Setting [1] is: dose: 100.0 mg/kg/injection, schedule: Q04DX002 (ip), vehicle: saline.
Where [2] appears, read: dose: 25.0 mg/kg/injection, schedule: Q01DX009 (ip), vehicle: Klucel (hydroxypropylcellulose) (HPC).
The mark [3] stands for this setting: dose: 100.0 mg/kg/injection, schedule: Q04DX003 (ip), vehicle: Klucel (hydroxypropylcellulose) (HPC).
The mark [4] stands for this setting: dose: 100.0 mg/kg/injection, schedule: Q01DX009 (ip), vehicle: saline with Tween-80.
Where [5] appears, read: dose: 200.0 mg/kg/injection, schedule: Q01DX009 (ip), vehicle: saline with Tween-80.
[6] abbreviates: dose: 100.0 mg/kg/injection, schedule: Q01DX001 (ip), vehicle: Klucel (hydroxypropylcellulose) (HPC).
Where [7] appears, read: dose: 200.0 mg/kg/injection, schedule: Q01DX001 (ip), vehicle: Klucel (hydroxypropylcellulose) (HPC).
[8] abbreviates: dose: 400.0 mg/kg/injection, schedule: Q01DX001 (ip), vehicle: Klucel (hydroxypropylcellulose) (HPC).
[9] abbreviates: dose: 100.0 mg/kg/injection, schedule: Q01DX001 (ip), vehicle: saline.
The mark [10] stands for this setting: dose: 200.0 mg/kg/injection, schedule: Q01DX001 (ip), vehicle: saline.
The mark [11] stands for this setting: dose: 400.0 mg/kg/injection, schedule: Q01DX001 (ip), vehicle: saline.

SMILES strings stand for the structures. Where “and” joins values, the source holds several entries; their conditions need not be identical. Equal values may be shown once. Inconclusive results and toxic doses are left out.

Turning to `O=C(O)CN=CC(O)C(O)C(O)C(O)CO` (centres undefined), the T/C is, setting by setting: (dose: 12.5 mg/kg/injection, schedule: Q04DX002 (ip), vehicle: saline) 105 % of control; (dose: 25.0 mg/kg/injection, schedule: Q04DX002 (ip), vehicle: saline) 88 % of control; (dose: 50.0 mg/kg/injection, schedule: Q04DX002 (ip), vehicle: saline) 105 % of control; under setting [1], 123 % of control; (dose: 200.0 mg/kg/injection, schedule: Q04DX002 (ip), vehicle: saline) 103 % of control; (dose: 400.0 mg/kg/injection, schedule: Q04DX002 (ip), vehicle: saline) 106 % of control.

Consider `CN(C)c1ccc(/C=C/c2cnccn2)cc1`, for which the T/C runs as follows: under setting [2], 107 % of control; under setting [3], 94 % of control; (dose: 200.0 mg/kg/injection, schedule: Q04DX003 (ip), vehicle: Klucel (hydroxypropylcellulose) (HPC)) 93 % of control.

In the case of `CCC(=O)Nc1ccccc1Cl`, the T/C reads like this: under setting [4], 97 % of control; under setting [5], 98 % of control; (dose: 400.0 mg/kg/injection, schedule: Q01DX009 (ip), vehicle: saline with Tween-80) 101 % of control.

For the molecule `CCCC(CCC)NC(CC)COC(=O)c1ccc(N)cc1` (centres undefined), the T/C (dose: 75.0 mg/kg/injection, schedule: Q01DX001 (ip), vehicle: other) was 97 % of control.

Turning to `CCCC[P+](CCCC)(CCCC)Cc1ccc(C(=O)Oc2ccc([N+](=O)[O-])cc2)cc1`, the T/C under setting [2] was 98 % of control; the T/C (dose: 25.0 mg/kg/injection, schedule: Q04DX003 (ip), vehicle: Klucel (hydroxypropylcellulose) (HPC)) is 91 % of control; the T/C (dose: 50.0 mg/kg/injection, schedule: Q01DX009 (ip), vehicle: Klucel (hydroxypropylcellulose) (HPC)) is 89 % of control; the T/C (dose: 50.0 mg/kg/injection, schedule: Q04DX003 (ip), vehicle: Klucel (hydroxypropylcellulose) (HPC)) is 93 % of control; the T/C (dose: 100.0 mg/kg/injection, schedule: Q01DX009 (ip), vehicle: Klucel (hydroxypropylcellulose) (HPC)) was 102 % of control; the T/C under setting [3] is 96 % of control and 88 % of control.

Regarding `CCN1C(=O)CN=C(c2ccccn2)c2cc(Cl)ccc21`, the T/C by setting is: under setting [6], 95 % of control; under setting [7], 101 % of control; under setting [8], 96 % of control.

`O=C1c2ccccc2Cc2ccccc21`: the T/C was 97 % of control under setting [9]; 103 % of control (dose: 100.0 mg/kg/injection, schedule: Q04DX002 (ip), vehicle: gum acacia); 95 % of control under setting [10]; 100 % of control (dose: 200.0 mg/kg/injection, schedule: Q04DX002 (ip), vehicle: gum acacia); 106 % of control under setting [11]; 106 % of control (dose: 400.0 mg/kg/injection, schedule: Q04DX002 (ip), vehicle: gum acacia).

In the case of `NC(=S)c1nnn(Cc2ccccc2)c1N`, the T/C was 100 % of control under setting [9], 101 % of control under setting [10] and 102 % of control under setting [11].

On to `CN(C)NC(=O)NCCCl`, for which the T/C by setting is: (dose: 100.0 mg/kg/injection, schedule: Q04DX003 (ip), vehicle: saline) 106 % of control; (dose: 200.0 mg/kg/injection, schedule: Q04DX003 (ip), vehicle: saline) 105 % of control; (dose: 400.0 mg/kg/injection, schedule: Q04DX003 (ip), vehicle: saline) 108 % of control.

For the molecule `CCCCNC(=O)c1ccc(C)c(OCc2ccccc2)c1[N+](=O)[O-]`, the T/C is 108 % of control under setting [9], 87 % of control under setting [10] and 90 % of control under setting [11].

Take `CC1(N2CCCC2)CCCCC1`: the T/C was 94 % of control (dose: 50.0 mg/kg/injection, schedule: Q01DX001 (ip), vehicle: carboxymethylcellulose (CMC)) and 99 % of control (dose: 100.0 mg/kg/injection, schedule: Q01DX001 (ip), vehicle: carboxymethylcellulose (CMC)).

With `OC(/C=C/c1ccccc1)CC(O)(C(F)(F)F)C(F)(F)F` (centres undefined), the T/C was 103 % of control (dose: 100.0 mg/kg/injection, schedule: Q04DX003 (ip), vehicle: saline with Tween-80); 110 % of control (dose: 200.0 mg/kg/injection, schedule: Q04DX003 (ip), vehicle: saline with Tween-80); 110 % of control (dose: 400.0 mg/kg/injection, schedule: Q04DX003 (ip), vehicle: saline with Tween-80).

On to `Nc1ncnc(N)c1NC(=O)c1ccc(OCCc2ccccc2)c(Cl)c1`, for which the T/C was 106 % of control (dose: 100.0 mg/kg/injection, schedule: Q01DX001 (ip), vehicle: saline with Tween-80); 96 % of control (dose: 200.0 mg/kg/injection, schedule: Q01DX001 (ip), vehicle: saline with Tween-80); 102 % of control (dose: 400.0 mg/kg/injection, schedule: Q01DX001 (ip), vehicle: saline with Tween-80).

Take `NC(=O)c1cccn1-c1ccc2ncccc2c1`: the T/C is 89 % of control (dose: 25.0 mg/kg/injection, schedule: Q04DX002 (ip), vehicle: Klucel (hydroxypropylcellulose) (HPC)); 92 % of control (dose: 50.0 mg/kg/injection, schedule: Q04DX002 (ip), vehicle: Klucel (hydroxypropylcellulose) (HPC)); 86 % of control (dose: 100.0 mg/kg/injection, schedule: Q04DX002 (ip), vehicle: Klucel (hydroxypropylcellulose) (HPC)).

For the molecule `O=C(CNC(=O)Nc1ccc(Cl)c(Cl)c1)N/N=C/c1cccc(F)c1`, the T/C (dose: 50.0 mg/kg/injection, schedule: Q01DX009 (ip), vehicle: saline with Tween-80) is 96 % of control; the T/C under setting [4] was 93 % of control; the T/C under setting [5] is 89 % of control.

On to `Clc1nc2ncn3cnnc3c2[nH]1`, for which the T/C was 108 % of control under setting [6], 98 % of control under setting [7] and 93 % of control under setting [8].

Turning to `CC(=O)Nc1ncc(CCC2OCCO2)c(=O)[nH]1`, the T/C was 95 % of control under setting [6], 97 % of control under setting [7] and 98 % of control under setting [8].

For `CCNCCCNCC(Cc1ccccc1)c1ccccc1` (centres undefined), under setting [1], the T/C was 102 % of control.

Take `C[C@H](CCC(=O)O)[C@H]1CC[C@H]2[C@@H]3[C@H](O)C[C@@H]4C[C@H](O)CC[C@]4(C)[C@H]3C[C@H](O)[C@]12C` (tested in a mixture with another compound): the T/C is 107 % of control (dose: 37.5 mg/kg/injection, schedule: Q01DX009 (ip), vehicle: saline); 105 % of control (dose: 50.0 mg/kg/injection, schedule: Q04DX003 (ip), vehicle: other); 111 % of control (dose: 75.0 mg/kg/injection, schedule: Q01DX009 (ip), vehicle: saline); 105 % of control (dose: 77.0 mg/kg/injection, schedule: Q01DX Z (ip), vehicle: methylcellulose (MC)); 97 % of control (dose: 80.0 mg/kg/injection, schedule: Q01DX009 (ip), vehicle: other); 115 % of control (dose: 80.0 mg/kg/injection, schedule: Q01DX009 (ip), vehicle: saline). Further, the T/C (dose: 80.0 mg/kg/injection, schedule: Q01DX Z (ip), vehicle: saline) is 111 % of control; the T/C (dose: 100.0 mg/kg/injection, schedule: Q01DX001 (ip), vehicle: alcohol) is 96 % of control; the T/C (dose: 100.0 mg/kg/injection, schedule: Q04DX003 (ip), vehicle: other) is 97 % of control; the T/C (dose: 116.0 mg/kg/injection, schedule: Q01DX Z (ip), vehicle: methylcellulose (MC)) is 115 % of control; the T/C (dose: 120.0 mg/kg/injection, schedule: Q01DX009 (ip), vehicle: other) is 118 % of control; the T/C (dose: 120.0 mg/kg/injection, schedule: Q01DX Z (ip), vehicle: saline) is 152 % of control. Further, the T/C by setting is: (dose: 150.0 mg/kg/injection, schedule: Q01DX009 (ip), vehicle: saline) 88 % of control; (dose: 180.0 mg/kg/injection, schedule: Q01DX009 (ip), vehicle: other) 115 % of control; (dose: 180.0 mg/kg/injection, schedule: Q01DX Z (ip), vehicle: methylcellulose (MC)) 115 % of control; (dose: 180.0 mg/kg/injection, schedule: Q01DX Z (ip), vehicle: saline) 179 % of control; (dose: 198.0 mg/kg/injection, schedule: Q04DX003 (ip), vehicle: other) 115 % of control; (dose: 200.0 mg/kg/injection, schedule: Q01DX001 (ip), vehicle: alcohol) 92 % of control. For the same molecule, the T/C is, setting by setting: (dose: 200.0 mg/kg/injection, schedule: Q04DX003 (ip), vehicle: other) 105 % of control; (dose: 263.0 mg/kg/injection, schedule: Q01DX Z (ip), vehicle: methylcellulose (MC)) 96 % of control; (dose: 270.0 mg/kg/injection, schedule: Q01DX Z (ip), vehicle: saline) 114 % of control.

These data come from PubChem BioAssay AID248 (DTP/NCI, 2004).
